# From publication PMC9446148, “Hapten designs based on aldicarb for the development of a colloidal gold immunochromatographic quantitative test strip” (Frontiers in Nutrition, 2022)
# Tested on: anti-aldicarb monoclonal antibody
# Test: icELISA cross-reaction test of the monoclonal antibody
# Type: binding, mouse
# Settings: for Cross-reaction rate: IC50 of aldicarb relative to IC50 of inhibitor; for IC50: icELISA, inhibitor against anti-aldicarb monoclonal antibody
# Source text: A mouse monoclonal antibody subtype identification ELISA kit was used to identify the antibody subtype. Indirect competitive ELISA (icELISA) was used to determine the 50% inhibitory mass concentration (IC50) of the monoclonal antibody against aldicarb, and IC50 was used to measure the sensitivity of the monoclonal antibody ([28]). Cross-reaction tests were used to determine specificity, in which aldicarb sulfone, aldicarb sulfoxide, thiofanox, oxamyl, methomyl, metolcarb, isoprocarb, and carbofuran were selected as inhibitors. The IC50 of each inhibitor was determined by icELISA, and the IC50 of the monoclonal antibody against aldicarb and the IC50 of the inhibitor were taken as the cross-reaction rate.
# Antibody specificity is the ability of the antibody to bind to a specific antigen in preference over antigen analogs. The cross-reactivity rate is often used as an evaluation standard because an inverse relationship exists between the cross-reactivity rate and the specificity of the antibody. In this study, we selected aldicarb sulfone, aldicarb sulfoxide, thiofanox, oxamyl, methomyl, metolcarb, isoprocarb, and carbofuran, with chemical structures similar to that of aldicarb, for the specificity analysis.
SMILES,Cross-reaction rate,IC50,also measured
CNC(=O)O/N=C/C(C)(C)S(C)(=O)=O [Aldicarb sulfone],<0.978%,>0.042 µg/mL,Cross-reaction rate (listed as aldicarb sulfone): < 1%
CNC(=O)O/N=C/C(C)(C)[S+](C)[O-] (stereo not shown) [Aldicarb sulfoxide],<0.978%,>0.042 µg/mL,Cross-reaction rate (listed as aldicarb sulfoxide): < 1%
"CNC(=O)O/N=C/C(C)(C)SC [Aldicarb, [(E)-(2-methyl-2-methylsulfanylpropylidene)amino]N-methylcarbamate]",100%,,
CNC(=O)Oc1cccc2c1OC(C)(C)C2 [Carbofuran],<0.978%,>0.042 µg/mL,Cross-reaction rate (listed as carbofuran): < 1%
CNC(=O)Oc1ccccc1C(C)C [Isoprocarb],<0.978%,>0.042 µg/mL,Cross-reaction rate (listed as isoprocarb): < 1%
CNC(=O)ON=C(C)SC [Methomyl],<0.978%,>0.042 µg/mL,Cross-reaction rate (listed as methomyl): < 1%
CNC(=O)Oc1cccc(C)c1 [Metolcarb],<0.978%,>0.042 µg/mL,Cross-reaction rate (listed as metolcarb): < 1%
CNC(=O)O/N=C(\SC)C(=O)N(C)C [Oxamyl],<0.978%,>0.042 µg/mL,Cross-reaction rate (listed as oxamyl): < 1%
CNC(=O)ON=C(CSC)C(C)(C)C [Thiofanox],<0.978%,>0.042 µg/mL,Cross-reaction rate (listed as thiofanox): < 1%
